Measured values from US12655189B2, “DOTA binding chimeric antigen receptor for cellular therapy” (THE TRUSTEES OF THE UNIVERSITY OF PENNSYLVANIA, priority 2019, dated 2026).

Legend:
[1] = system: Ramos (CD20+/EGFR−) cells; test: Luciferase lysis assay, Ramos; format: cell-based; details: 16 hours, 2.5:1 E:T, average of 1 DOTA per antibody
Description: Cetuximab and Rituximab were conjugated to Bn-DOTA to create targeting ligands with an average of 1 DOTA molecule per antibody, confirmed by MALDI TOF. MDA468 (CD20-/EGFR+) cells and Ramos (CD20+/EGFR−) cells expressing fLuc were incubated for 16 hours with DOTA CAR T cells at a 2.5:1 E:T ratio and targeting ligands at a range of concentrations. Each condition was run in triplicate. Luminescence was measured after co-culture and used to calculate lysis.

CD20+ cells = test: Lysis of CD20+ cells by DOTA CAR; format: cell-based; details: SKOV3 cells as antigen negative control
hC8.2.5 DOTA CAR T cells = test: IFNγ secretion (ELISA) in response to immobilized DOTA or Y-DOTA; format: cell-based, human; details: immobilized ligand
Description: FIGS. 3A-3H illustrate Anti-DOTA Universal Immune Receptor binding and redirected killing. […] DOTA-NHS or Y-DOTA-Sarcosine-Biotin were incubated at various concentrations in a 96-well plate and allowed to passively adhere overnight at 4° C. Plates were washed 2× with PBS and 50,000 immune receptor expressing T cells were added to each well. Plates were incubated at 37° C. and 5% CO2 for 16 hours. Supernatants were harvested and analyzed for IFNγ secretion using a standard IFNγ ELISA kit. […] The average number of DOTA's per antibody was determined using the difference in mass between labeled and unlabeled antibody; in this example there are ˜9.3 DOTAs per antibody.

antigen positive cells = test: Target-cell lysis with DOTA-conjugated targeting ligands: linker/metal tuning and blocking (FIGS. 3E, 6B, 9); format: cell-based; details: 6 nM DOTA-NHS blocking
Description: To investigate the ability of DOTA-linked antibodies to trigger effector function in CAR T cells, CAR T cells were incubated with varying amounts of the Her2-specific Herceptin-conjugated DOTA antibody for 16 hours (FIG. 3D). Following this incubation, the supernatant was collected and IFNγ production was measured.
Herceptin antibodies were conjugated to DOTA, various metal ions were chelated, and the ability of DOTA CAR T cells to kill their targets was evaluated.

[2] = system: SKOV3 cells transduced with the DOTA CAR; test: Cell uptake of radiolabeled probes, DOTA CAR transduced cells; format: cell-based
Description: FIG. 19 is a histogram illustrating [[…]]DOTA-Bn-NH2 and [^90Y]AABD uptake in SKOV3 cells transduced with the DOTA CAR.
FIG. 20 is a graph illustrating [[…]]Rituximab-Bn-DOTA-Y uptake in SKOV3 cells transduced with the DOTA CAR. The cells bind to [^125I]Rituximab-Bn-DOTA-Y rapidly, with maximum uptake at 60 min.
(§1) [^90Y]DOTA-Bn-NH2 and [^90Y]AABD (FIG. 14) were synthesized by incubating 0.6 mCi of Y-90 with DOTA-Bn-NH2 or AABD at 80° C. for 30 min. The radiochemical purity of [^90Y]DOTA-Bn-NH2 and [^90Y]AABD was >95% as analyzed by ITLC (instant thin-layer chromatography). Cell uptake studies were performed with SKOV3 cells transduced with the DOTA CAR, with untransduced SKOV3 cells as a control; excess Y-DOTA-Bn-NH2 (250 nM) was used as a blocking agent.
(§2) Rituxumab-Bn-DOTA-Y was radiolabeled with 1-125 using Pierce Pre-Coated Iodination Tubes. The radiochemical purity of [^125I]Rituximab-Bn-DOTA-Y was >99% based on ITLC (instant thin-layer chromatography). Cell uptake studies with [^125I]Rituximab-Bn-DOTA-Y were performed with SKOV3 cells that were transduced with the DOTA CAR, with untransduced SKOV3 cells as a control. […] This experiment confirmed that Y-DOTA labeled antibodies are capable of binding to cells that express the DOTA CAR, with minimal nonspecific binding.

untransduced SKOV3 cells = test: Cell uptake of radiolabeled probes, untransduced control cells; format: cell-based
Description: as §1, §2

With “Rituximab-Bn-DOTA: Rituximab conjugated to Bn-DOTA” the “lysis of Ramos cells” value [1] was “able to specifically lyse their respective target cell lines” and the “lysis of CD20+ cells” value (CD20+ cells) was “specifically lysed”.

In the case of “Rituximab-Bn-DOTA-Y: Rituximab-Bn-DOTA with chelated yttrium”, the “lysis of CD20+ cells” value (CD20+ cells) is reported as “capable of lysing CD20+ cells”.

For `O=C(O)CN1CCN(CC(=O)O)CCN(CC(=O)ON2C(=O)CCC2=O)CCN(CC(=O)O)CC1` [DOTA-NHS], the “concentration at which the IFNγ effect was saturating” value (hC8.2.5 DOTA CAR T cells) was 100 µM, the “IFNγ production by hC8.2.5 DOTA CAR T cells” value (hC8.2.5 DOTA CAR T cells; 16 hours) was “low levels of IFNγ” and the “effect of free monomeric DOTA on lytic function of Herceptin-NHS-DOTA-Y-CAR T cells” value (antigen positive cells) was “blockade of lytic function”.

With “[^125I]Rituximab-Bn-DOTA-Y: Rituximab-Bn-DOTA-Y radiolabeled with I-125” the “time of maximum uptake” value [2] was 60 min, the cell uptake ([2]; at 60 min) was 65 % input/10^6 cells and the “cell uptake in untransduced cells” value (untransduced SKOV3 cells) was “minimal to no uptake”.
